Results taken from the NIST ThermoML archive (doi:10.1016/j.jct.2019.01.021).

Assay: molar heat capacity at constant pressure
Conditions: 101.33 kPa, Crystal 2, Small (less than 1 g) adiabatic calorimetry

N.NS(=O)(=O)O [ammonium sulfamate]
Conditions	molar heat capacity at constant pressure [J/K/mol]
5 K	0.003159
8.91 K	0.2228
9.15 K	0.2561
9.62 K	0.3293
9.86 K	0.3608
10 K	0.3908
10.36 K	0.4664
10.69 K	0.5138
11.01 K	0.5995
11.34 K	0.6668
11.67 K	0.7466
12.01 K	0.8356
12.34 K	0.9262
12.68 K	1.013
13.01 K	1.113
13.35 K	1.229
13.69 K	1.347
14.03 K	1.465
14.37 K	1.586
14.72 K	1.72
15 K	1.837
15.07 K	1.857
15.42 K	2
15.76 K	2.155
16.11 K	2.332
16.47 K	2.484
16.82 K	2.64
17.17 K	2.83
17.52 K	3.021
17.88 K	3.204
18.24 K	3.395
18.59 K	3.592
18.95 K	3.806
19.31 K	4.033
19.67 K	4.25
20 K	4.407
20.03 K	4.465
20.61 K	4.831
21.36 K	5.306
22.1 K	5.824
22.85 K	6.364
23.61 K	6.908
24.36 K	7.492
25 K	7.982
25.12 K	8.117
25.88 K	8.748
26.65 K	9.316
27.42 K	9.947
28.19 K	10.61
28.96 K	11.3
29.73 K	11.97
30 K	12.22
30.51 K	12.68
31.29 K	13.41
32.06 K	14.11
32.85 K	14.85
33.63 K	15.59
34.41 K	16.31
35 K	16.88
35.2 K	17.03
35.98 K	17.81
36.77 K	18.53
37.56 K	19.25
38.35 K	19.96
39.14 K	20.7
39.93 K	21.44
40 K	21.53
40.72 K	22.21
41.51 K	22.95
42.31 K	23.72
43.1 K	24.46
43.9 K	25.22
44.69 K	26
45 K	26.19
45.49 K	26.74
46.29 K	27.42
47.09 K	28.16
47.88 K	28.92
48.68 K	29.58
49.48 K	30.31
50 K	30.85
50.28 K	31.01
51.08 K	31.75
51.88 K	32.46
52.68 K	33.24
53.48 K	34.09
54.28 K	34.9
55 K	35.75
55.08 K	35.75
55.89 K	36.24
56.69 K	36.94
57.49 K	37.64
58.29 K	38.37
59.1 K	39.05
59.91 K	39.76
60 K	39.91
60.71 K	40.47
61.52 K	41.17
62.32 K	42.03
63.12 K	42.86
63.92 K	43.55
64.73 K	44.16
65 K	44.07
65.54 K	44.89
66.34 K	45.53
67.15 K	46.21
67.95 K	46.89
68.76 K	47.59
69.57 K	48.3
70 K	49.06
70.38 K	49.01
71.3 K	49.73
72.35 K	50.64
73.39 K	51.54
74.44 K	52.48
75 K	53.21
75.48 K	53.43
76.53 K	54.35
77.58 K	55.24
78.62 K	56.18
79.67 K	57.12
79.91 K	57.2
80 K	57.37
80.72 K	58.02
80.96 K	58.19
81.77 K	58.95
82.01 K	59.07
82.82 K	59.87
83.05 K	59.96
83.87 K	60.82
84.1 K	60.91
84.92 K	61.73
85.15 K	61.78
86.2 K	62.6
87.24 K	63.53
88.29 K	64.43
89.34 K	65.22
90 K	65.68
90.39 K	66.05
91.44 K	66.98
92.49 K	67.83
93.54 K	68.65
94.59 K	69.45
95.65 K	70.24
96.7 K	71.12
97.75 K	71.89
98.8 K	72.7
99.86 K	73.47
100 K	73.33
100.91 K	74.3
101.96 K	75.09
103.01 K	75.85
104.06 K	76.59
105.11 K	77.34
106.16 K	78.13
107.21 K	78.85
108.26 K	79.53
109.31 K	80.3
110 K	80.4
110.37 K	80.98
111.42 K	81.71
112.47 K	82.4
113.53 K	83.05
114.58 K	83.71
115.63 K	84.43
116.68 K	85.1
117.74 K	85.75
118.79 K	86.44
119.84 K	87.02
120 K	86.89
120.9 K	87.68
121.95 K	88.37
123 K	88.95
124.05 K	89.55
125.11 K	90.12
126.16 K	90.78
127.21 K	91.36
128.27 K	92.02
129.32 K	92.56
130 K	92.71
130.38 K	93.15
131.43 K	93.76
132.49 K	94.31
133.54 K	94.78
134.59 K	95.43
135.65 K	95.99
136.7 K	96.5
137.76 K	97.01
138.81 K	97.53
139.87 K	98.13
140 K	98.03
140.92 K	98.63
141.97 K	99.21
143.03 K	99.69
144.09 K	100.16
145.14 K	100.67
146.2 K	101.12
147.25 K	101.64
148.31 K	102.18
149.36 K	102.59
150 K	102.85
150.42 K	103.11
151.47 K	103.62
152.53 K	104.13
153.58 K	104.47
154.64 K	105.04
155.69 K	105.57
156.75 K	105.98
157.8 K	106.39
158.86 K	106.87
159.91 K	107.31
160 K	107.34
160.97 K	107.74
162.02 K	108.15
163.08 K	108.69
164.13 K	109.09
165.19 K	109.46
166.24 K	109.98
167.3 K	110.42
168.35 K	110.83
169.41 K	111.19
170 K	111.5
170.46 K	111.64
171.51 K	112.13
172.57 K	112.44
173.62 K	112.78
174.67 K	113.21
175.73 K	113.67
176.78 K	114.15
177.84 K	114.52
178.89 K	114.89
179.94 K	115.32
180 K	115.4
181 K	115.71
182.05 K	116.14
183.1 K	116.41
184.16 K	116.84
185.21 K	117.3
186.26 K	117.56
